{"source": "patent US20230364111A1", "about": "(priority 2020, published 2023)", "key": {"[1]": {"test_system": "SARS-CoV-2 Wk-521 strain", "assay": "SARS-CoV-2 infection assay, viral RNA in culture supernatant (VeroE6/TMPRSS2 cells)", "assay_type": "cell-based"}, "[2]": {"test_system": "SARS-CoV-2", "assay": "SARS-CoV-2-induced cytopathic effect (CPE) in VeroE6/TMPRSS2 cells", "assay_type": "cell-based"}, "[3]": {"test_system": "SARS-CoV-2", "assay_type": "cell-based"}, "[4]": {"test_system": "SARS-CoV-2", "assay": "Time of addition assay, SARS-CoV-2 viral RNA", "assay_type": "cell-based", "conditions": "15 μM RDV, 15 μM CLQ, 10 μM Oxy210, 10 μM Oxy133"}, "[5]": {"test_system": "double-membrane vesicles (DMVs) in SARS-CoV-2-infected cells", "assay": "Electron microscopy of double-membrane vesicle (DMV) formation", "assay_type": "cell-based", "conditions": "10 μM Oxy210, Oxy232 (10 μM)"}, "[6]": {"test_system": "HCV NN (genotype-1b) subgenomic replicon", "assay_type": "cell-based, Hepatitis C virus (HCV)", "conditions": "10 μM Oxy210; 48 h; LucNeo #2 cells"}, "[7]": {"test_system": "HDV", "assay_type": "cell-based, Hepatitis D virus (HDV)", "conditions": "10 μM Oxy210 for six days; 200 nM MyrB; HepG2-hNTCP-C4 cells"}, "[8]": {"assay_type": "in vivo, mice", "conditions": "chow diet containing 4 mg Oxy210/g of food; 96 h"}, "[9]": {"test_system": "SARS-CoV-2 (isolate USA WA1/2020)", "assay": "SARS-CoV-2 infection of Calu-3 cells (dsRNA+ cells, automated microscopy)", "assay_type": "cell-based", "conditions": "Severe acute respiratory syndrome coronavirus 2, SARS-CoV-2 USA WA1/2020, MOI=0.5, 48 h post-infection, Calu-3", "experimental": "(§1) FIGS. 12A-12C depict dose-response curves for Oxy232. (FIG. 12A) Secreted viral RNA in the VeroE6 culture supernatant 24 h post-inoculation was quantified by real-time RT-PCR. Cell viability of Oxy232 treated cells evaluated with an MTT assay. (FIG. 12B) Secreted viral RNA of 3 SARS-CoV-2 strains in the VeroE6 culture supernatant 24 h post-inoculation was quantified by real-time RT-PCR. (FIG. 12C) Calu-3 (ATCC) cells were pretreated with Oxy232 for 2 hours prior to continuous infection with SARS-CoV-2 (isolate USA WA1/2020) at MOI=0.5. 48 h post-infection, cells were fixed, immune-strained, and imaged by automated microscopy for infection (dsRNA+ cells/total cell number) and cell number.\nAccording to a previously published report (Ohashi et al., Identification of Anti-Severe Acute Respiratory Syndrome-Related Coronavirus 2 (SARS-CoV-2) Oxysterol Derivatives In Vitro. Int J Mol Sci. 2021; 22(6):3163. PMCID: PMC8003796) inventors have tested a collection of naturally occurring and semisynthetic oxysterol derivatives in a SARS-CoV-2 cell culture infection assay in VeroE6/TMPRSS2 cells. […] See, Ohashi et al., Int J Mol Sci. 2021; 22(6):3163 and Dittmar et al. Drug repurposing screens reveal cell-type-specific entry pathways and FDA-approved drugs active against SARS-Cov-2. Cell Rep. […] PMCID: PMC7985926. […] Without wishing to be bound by a theory, biological activities of oxysterols, including measures of cell viability, can heavily depend on in vitro assay conditions, such as the fetal bovine serum concentration or the duration of pretreatment with the compounds, among other factors, that may not translate to the in vivo safety of the compounds."}, "[10]": {"test_system": "SARS-CoV-2 TY7-501 (Brazil strain)", "assay": "SARS-CoV-2 TY7-501 strain infection in VeroE6/TMPRSS2 cells", "assay_type": "cell-based", "conditions": "viral RNA 24 h post-inoculation", "experimental": "as §1\n(§2) According to a previously published report (Ohashi et al., Identification of Anti-Severe Acute Respiratory Syndrome-Related Coronavirus 2 (SARS-CoV-2) Oxysterol Derivatives In Vitro. Int J Mol Sci. 2021; 22(6):3163. PMCID: PMC8003796) inventors have tested a collection of naturally occurring and semisynthetic oxysterol derivatives in a SARS-CoV-2 cell culture infection assay in VeroE6/TMPRSS2 cells. […] See, Ohashi et al., Int J Mol Sci. 2021; 22(6):3163 and Dittmar et al. Drug repurposing screens reveal cell-type-specific entry pathways and FDA-approved drugs active against SARS-Cov-2. Cell Rep. […] PMCID: PMC7985926. […]"}, "[11]": {"test_system": "SARS-CoV-2 TY8-612 (South Africa strain)", "assay": "SARS-CoV-2 TY8-612 strain infection in VeroE6/TMPRSS2 cells", "assay_type": "cell-based", "conditions": "viral RNA 24 h post-inoculation", "experimental": "as §1, §2"}, "[12]": {"test_system": "idiopathic pulmonary fibrosis (IPF)", "assay": "Mouse model of idiopathic pulmonary fibrosis (IPF)", "assay_type": "in vivo", "conditions": "Parhami et al., unpublished observations"}, "[13]": {"assay": "In vivo safety and tolerability in mice", "conditions": "mouse"}, "[14]": {"test_system": "VeroE6/TMPRSS2 cells", "conditions": "read-out: CC50 (VeroE6); VeroE6"}, "[15]": {"conditions": "single oral dose 200 mg/kg"}, "[16]": {"test_system": "Calu-3 cells", "conditions": "at higher concentrations; automated microscopy"}, "[17]": {"test_system": "TGFβ signaling", "conditions": "previously reported [16]; fibroblastic cells and tumor cells; cited from earlier work"}, "[18]": {"test_system": "Hedgehog (Hh) signaling", "conditions": "previously reported [16]; fibroblastic cells and tumor cells; cited from earlier work"}, "[19]": {"assay": "in vivo", "conditions": "balb/c, mouse, po, 200 mg/kg"}, "[20]": {"assay": "in vitro", "conditions": "African green monkey"}, "[21]": {"assay": "in vitro", "conditions": "human"}}, "note": "Entries after “also recorded” stand apart in the source; their conditions may differ. Where two headings read alike, the source gives them in different places.", "data": [{"compound": "C[C@]12CC[C@H]3[C@@H](CC=C4C[C@@H](O)CC[C@@]43C)[C@@H]1CC[C@@H]2[C@](C)(O)CCc1cccnc1", "note": "[Oxy210, (3S,8S,9S,10R,13S,14S,17S)-17-((R)-2-hydroxy-4-(pyridin-3-yl)butan-2-yl)-10,13-dimethyl-2,3,4,7,8,9,10,11,12,13,14,15,16,17-tetradecahydro-1H-cyclopenta[a]phenanthren-3-ol]", "values": [{"measurement": "viral RNA in the culture supernatant", "setting": "[1]; 24 h post-inoculation, natural oxysterols up to 30 μM, semi-synthetic up to 15 μM", "value": "reduced viral RNA level in a dose-dependent manner"}, {"measurement": "IC50", "setting": "[1]; Severe acute respiratory syndrome coronavirus 2, Vero C1008, SARS-CoV-2, VeroE6, read-out: IC50 (VeroE6)", "value": 5.5, "unit": "µM"}, {"measurement": "IC90", "setting": "[1]; Severe acute respiratory syndrome coronavirus 2, Vero C1008, SARS-CoV-2, VeroE6, read-out: IC90 (VeroE6)", "value": 8.6, "unit": "µM"}, {"measurement": "IC90", "setting": "[1]; Severe acute respiratory syndrome coronavirus 2, VeroE6/TMPRSS2, 24 h, SARS-CoV-2 viral RNA in culture supernatant, 24 h post-inoculation, VeroE6/TMPRSS2 cells, read-out: IC90", "value": 8.6, "unit": "µM"}, {"measurement": "IC50", "setting": "[1]; Severe acute respiratory syndrome coronavirus 2, SARS-CoV-2 viral RNA in culture supernatant, 24 h post-inoculation, VeroE6/TMPRSS2 cells, read-out: IC50", "value": 5.5, "unit": "µM"}, {"measurement": "reduction of viral RNA production at the maximum", "setting": "[1]; at 15 μM", "value": 99.4, "unit": "%"}, {"measurement": "anti-SARS-CoV-2 activity", "setting": "[1]; cell-based assay, VeroE6/TMPRSS2", "value": "superior anti-SARS-CoV-2 activity; also recorded: robust anti-SARS-CoV-2 activity"}, {"measurement": "viral RNA levels in the culture supernatant", "setting": "[1]; oxysterol derivatives at 10 or 30 uM, 24 h post-inoculation, VeroE6/TMPRSS2", "value": "strongly reduced viral RNA levels"}, {"measurement": "SARS-CoV-2 propagation in cultured cells", "setting": "[1]; statement in words", "value": "potently inhibits the SARS-CoV-2 propagation"}, {"measurement": "SARS-CoV-2 replication", "setting": "[1]; statement in words", "value": "drastically reduced SARS-CoV-2 replication; also recorded: inhibits the SARS-CoV-2 genome replication; also recorded: potent replication inhibitor"}, {"measurement": "antiviral effect against SARS-CoV-2 (dose response, viral RNA)", "setting": "[1]; various concentrations, VeroE6/TMPRSS2", "value": "highly potent antiviral effect"}, {"measurement": "virus-induced CPE", "setting": "[2]; 48 h post-inoculation, 10 μM RDV, 30 μM cholesterol, 30 μM 7-KC, 10 μM Oxy133, 10 μM Oxy210, MOI 0.001", "value": "alleviates the virus-induced CPE; also recorded: blocked"}, {"measurement": "SARS-CoV-2-induced cytopathic effect", "setting": "[2]; oxy8 7.5 uM, oxy16 20 uM, oxy186 20 uM, oxy210 10 uM, 48 h, VeroE6/TMPRSS2", "value": "protected cells from cytopathic effect"}, {"measurement": "SARS-CoV-2 propagation / spread of infection (viral N protein, immunofluorescence)", "setting": "[3]", "value": "blocked"}, {"measurement": "viral RNA, compound present during the whole life cycle", "setting": "[4]; 24 h", "value": "clearly reduced viral RNA levels"}, {"measurement": "viral RNA, compound present post-entry", "setting": "[4]; added 2 h post-inoculation for 21 h", "value": "clearly reduced viral RNA levels; also recorded: predominantly inhibits the post-entry process"}, {"measurement": "DMV formation in SARS-CoV-2-infected cells", "setting": "[5]", "value": "disrupting the formation of double-membrane vesicles; also recorded: reduced viral replication and the formation of double-membrane vesicles; also recorded: remarkably reduced the DMV formation; also recorded: reduced the formation of DMVs; also recorded: substantially reduced; also recorded: inhibit DMV formation"}, {"measurement": "HCV replication (luciferase activity)", "setting": "[6]", "value": "reduced the DMV-dependent RNA replication of HCV; also recorded: Antiviral effects of Oxy210 were also observed during the replication of HCV"}, {"measurement": "HDV replication / infection (HDV RNA, real-time RT-PCR)", "setting": "[7]", "value": "antiviral activity was not observed in HDV infection"}, {"measurement": "adverse effects / body weight", "setting": "[8]", "value": "No adverse effects or significant loss of body weight"}, {"measurement": "IC50", "setting": "[9]; read-out: IC50 (Calu-3)", "value": 1.5, "unit": "µM"}, {"measurement": "IC90", "setting": "[9]; read-out: IC90 (Calu-3)", "value": 4.24, "unit": "µM"}, {"measurement": "activity against the TY7-501 strain", "setting": "[10]", "value": "undiminished activity"}, {"measurement": "activity against the TY8-612 strain", "setting": "[11]", "value": "undiminished activity"}, {"measurement": "effects in a mouse model of idiopathic pulmonary fibrosis (IPF)", "setting": "[12]", "value": "protective effects"}, {"measurement": "in vivo safety and tolerability in mice", "setting": "[13]", "value": "excellent in vivo safety and tolerability"}, {"measurement": "CC50", "setting": "[14]", "value": "> 15", "unit": "µM"}, {"measurement": "Tmax", "setting": "[15]; plasma", "value": 1, "unit": "h"}, {"measurement": "Cmax", "setting": "[15]; read-out: peak plasma concentration (Cmax), 200 mg/kg", "value": 19.4, "unit": "µM"}, {"measurement": "peak plasma concentration (Cmax)", "setting": "[15]", "value": "8,155 ng/mL"}, {"measurement": "tolerability", "setting": "[15]", "value": "well tolerated"}, {"measurement": "cell viability in Calu-3 cells", "setting": "[16]", "value": "do affect cell viability"}, {"measurement": "TGFβ signaling", "setting": "[17]", "value": "inhibited"}, {"measurement": "Hedgehog (Hh) signaling", "setting": "[18]", "value": "inhibited"}, {"measurement": "AUC", "setting": "[19]", "value": 29300, "unit": "ng·h/mL"}, {"measurement": "Cmax", "setting": "[19]", "value": 19, "unit": "µM"}, {"measurement": "CC50", "setting": "[20]", "value": "> 15", "unit": "µM"}, {"measurement": "CC50", "setting": "[21]", "value": 8.3, "unit": "µM"}]}]}
